According to ChEMBL document CHEMBL6177956, “Discovery of first-in-class human glycolate oxidase near infrared molecular rotor inhibitors (NIRGOi)” (Eur J Med Chem, 2025):

What was measured:
2-Hydroxyacid oxidase 2 [1] = target: T1, 2-Hydroxyacid oxidase 2 (Rattus norvegicus, UniProt Q07523); test: Inhibition of rat LCHAO using 2-hydroxyoctanoate as substrate incubated for 30 mins by Amplex Red reagent based fluorometric analysis; type: toxicity
T1 sequence (Q07523 whole entry): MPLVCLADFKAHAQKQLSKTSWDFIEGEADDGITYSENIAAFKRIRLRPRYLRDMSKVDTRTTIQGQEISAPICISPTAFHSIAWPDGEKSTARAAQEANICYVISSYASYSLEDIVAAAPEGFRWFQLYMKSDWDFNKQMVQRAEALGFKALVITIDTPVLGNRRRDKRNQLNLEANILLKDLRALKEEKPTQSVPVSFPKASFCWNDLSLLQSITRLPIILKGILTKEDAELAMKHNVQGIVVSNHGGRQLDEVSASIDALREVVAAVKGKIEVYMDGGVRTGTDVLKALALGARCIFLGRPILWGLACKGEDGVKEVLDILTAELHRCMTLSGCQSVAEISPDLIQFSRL

2-Hydroxyacid oxidase 2 [2] = target: T1, 2-Hydroxyacid oxidase 2; test: Binding affinity to rat LCHAO by Amplex Red reagent based fluorescence analysis; type: toxicity

Row | Compound | IC50 (2-Hydroxyacid oxidase 2 [1]) | Kd (2-Hydroxyacid oxidase 2 [2])
1 | N#CC(C#N)=C1C=C(/C=C/c2ccc(O)c(C(=O)O)c2)Oc2ccccc21 | > 500 µM | > 1000 µM
2 | O=C(O)c1cc(/C=C/C2=CC(=C3C(=O)c4ccccc4C3=O)c3ccccc3O2)ccc1O | 248 µM | 462 µM
3 | CC1(C)C(/C=C/c2ccc(O)c(C(=O)O)c2)=[N+](CCC(=O)O)c2ccc3ccccc3c21 | 36.7 µM | 3.2 µM
